Data published in article PMC9783571, “Component Characterization, In Vitro Activities and Molecular Mechanism of Cydonia oblonga Mill. against Diabetic” (Pharmaceuticals, 2022).
Values after ≈ are worked out from the molar mass of the structure shown.

Biological target: T1, α-glucosidase
T1 construct: gene MAL12; enzyme preparation
Assay: p-NPG hydrolysis, absorbance […] nm
Type: biochemical
Details: p-NPG (50 μL of 3 mM), potassium phosphate pH 7.4, 37 °C, 1 h

IC50 [µg/mL]	SMILES
250.8 (≈ 928 µM)	O=c1cc(-c2ccc(O)cc2)oc2cc(O)cc(O)c12 [Apigenin]
> 5000	Oc1cc(O)c2c(c1)O[C@H](c1ccc(O)c(O)c1)[C@H](O)C2 [Epicatechin]
158.8 (≈ 502 µM)	COc1cc(-c2oc3cc(O)cc(O)c3c(=O)c2O)ccc1O [Isorhamnetin]
190.4 (≈ 665 µM)	O=c1cc(-c2ccc(O)c(O)c2)oc2cc(O)cc(O)c12 [Luteolin]
